Assay results published in patent publication US20250332143A1, “COMPOSITION COMPRISING ALOX5 INHIBITOR FOR PREVENTING OR TREATING SARCOPENIA” (PLUTO Inc., priority 2022, published 2025).

How the values were obtained:
[1] = tested on: Dex-treated C2C12 myotubes; test: Dex-induced myotube atrophy, myosin heavy chain immunostaining, myotube diameter; type: cell-based, mouse; details: 10 μM Dex 24 h; for diameter of muscle fibers (C2C12 myotubes): zileuton 10 µM, wedelolactone 20 μM (FIGS. 2, 3)
Protocol: (§1) C2C12 murine skeletal muscle myoblasts were obtained from Koram Biotech (Republic of Korea). The cells were maintained in DMEM growth medium supplemented with 10% FBS, 1% penicillin, and streptomycin. When myoblasts proliferated to approximately 90%, they were differentiated into muscle fibers by treating them with DMEM differentiation medium supplemented with 2% HS, 1% penicillin, and streptomycin for 96 hours. Differentiated muscle fibers were treated with 10 μM Dex for 24 hours to induce sarcopenia. To evaluate the degree of differentiation of muscle cells, differentiating myoblasts were treated with the corresponding compound in differentiation medium for 24 or 48 hours.
Muscle fibers were stained using immunochemical staining using myosin heavy chain antibody. Specifically, the muscle fibers were rinsed three times with PBS and then fixed with a 3.7% formaldehyde solution. After rinsing with PBS, a transparency process was performed with 0.2% TritonX-100 solution, and additional rinsing was performed with PBS. They were blocked with 1% bovine serum albumin solution (1% BSA in PBS-T) and incubated with primary antibody overnight at 4° C. After washing with PBS, the secondary antibody was treated for 1 hour. Afterwards, the myotubes were counterstained with 1 μM DAPI in PBS. Fluorescence images of stained myotubes in five different areas were obtained using a DMI 3000 B microscope (Leica, Germany) and analyzed using ImageJ 1.52 software (National Institutes of Health, Bethesda, MD, USA). Myotubes were classified as myosin heavy chain positive cells containing four or more nuclei, and the diameter of muscle fibers containing four or more nuclei was measured.

Atrogin-1 and MuRF-1 = test: qPCR of muscle atrophy regulators in Dex-treated C2C12 myotubes; type: cell-based, mouse
Protocol: as §1
For quantitative real-time PCR, transcript levels of genes of interest were analyzed using the StepOnePlus real-time PCR system (Applied Biosystems, UK). Total RNA was reverse transcribed to prepare cDNA using AccuPower® RT PreMix (Bioneer Corporation). The obtained cDNA was subjected to real-time PCR according to the manufacturer's instructions with the following changes. PCR was performed in triplicate in a total volume of 20 μL 2× Power SYBR Green PCR Master Mix (Enzynomics, Republic of Korea) containing 200 nM (final concentration) of each specific primer and 1 μL of cDNA synthesized from 1 μg of total RNA. PCR amplification consisted of incubating the mixture at 95° C. for 10 minutes, followed by 40 cycles of denaturation, annealing, and extension. Denaturation was performed at 95° C. for 15 s, annealing was performed at 60° C. for 1 min, and extension was performed at 72° C. for 20 s with fluorescence detection at 72° C. after each cycle. After the final cycle, melting point analysis of all samples was performed within the range of 60 to 95° C. using continuous fluorescence detection. Specific cDNA samples were included in each run and used as reference material for comparison between runs. The expression level of GAPDH was used to calculate and normalize the expression levels of all other genes. Results were expressed as relative expression levels for each gene. The synthesized cDNA was amplified by quantitative real-time PCR (qRT-PCR) or standard PCR.

Row | SMILES | diameter of muscle fibers (C2C12 myotubes) [1] | Atrogin-1 expression (mRNA, qPCR) (Atrogin-1 and MuRF-1) | MuRF-1 expression (mRNA, qPCR) (Atrogin-1 and MuRF-1) | myotube atrophy in Dex-treated myotubes ([1]; C2C12 myotubes)
1 | COc1cc(O)c2c(c1)oc(=O)c1c3cc(O)c(O)cc3oc21 [wedelolactone, Wedelolactone] | recovered | decreased | decreased | 
2 | CCCCC/C=C\C[C@@H](O)/C=C/C=C/C=C\[C@@H](O)CCCC(=O)O [LTB4, Leukotriene B4] |  | did not affect |  | did not affect
3 | CC(c1cc2ccccc2s1)N(O)C(N)=O (centres unmarked) [zileuton, Zileuton] | recovered | decreased | decreased | 
